In US6559135B2, “Per-(3-6-anhydro)cyclodextrins derivatives, preparation and use thereof for separating ions” (Commissariat a l'Energie Atomique, priority 2000, dated 2003):

Experiments:
Format in all cases: binding
[1] = Complexation of Dy3+ followed by proton NMR; settings: 1 mmol/l derivative, 4 mmol/l cation, aqueous solution
Method: (§1) Each complex is prepared by adding 4 mmol/l of the tested cation to 500 μl of an aqueous solution containing 1 mmol/l of the product from Example 1. The following cations were tested: Lu^3+, La^3+, Dy^3+, Eu^3+ and Co^2+.
(§2) The resulting complexes were then characterised by proton nuclear magnetic resonance spectrometry.

[2] = Complexation of Eu3+ followed by proton NMR; settings: 1 mmol/l derivative, 4 mmol/l cation, aqueous solution
Method: as §1, §2

[3] = Complexation of Co2+ followed by proton NMR; settings: 1 mmol/l derivative, 4 mmol/l cation, aqueous solution
Method: as §1, §2

[4] = Complexation of La3+ followed by proton NMR; settings: 1 mmol/l derivative, 4 mmol/l cation, aqueous solution
Method: as §1, §2

[5] = Complexation of Lu3+ followed by proton NMR; settings: 1 mmol/l derivative, 4 mmol/l cation, aqueous solution
Method: as §1, §2

[6] = Competition with EDTA in complexing Dy3+, proton NMR; settings: 1 mmol/l derivative, 4 mmol/l cation and EDTA (large excess of EDTA), aqueous solution
Method: (§3) In this example, experiments were carried out to compare the derivative from Example 1 and ethylene diamine tetra acetate (EDTA) in complexing Dy^3+, Eu^3+ and Co^2+ ions, in order to get an idea of the force of the complexes prepared in Example 2.
(§4) With this in mind, 4 mmol/l of the tested cation and EDTA were added to 50 μl of an aqueous solution containing 1 mmol/l of the derivative from Example 1. The resulting products were than characterised by proton NMR spectrometry.

[7] = Competition with EDTA in complexing Eu3+, proton NMR; settings: 1 mmol/l derivative, 4 mmol/l cation and EDTA (large excess of EDTA), aqueous solution
Method: as §3, §4

[8] = Competition with EDTA in complexing Co2+, proton NMR; settings: 1 mmol/l derivative, 4 mmol/l cation and EDTA (large excess of EDTA), aqueous solution
Method: as §3, §4

[9] = Complexation of physiological cation Na+, proton NMR; settings: same procedure as Example 2: 1 mmol/l derivative, 4 mmol/l cation
Method: as §1
(§5) In this example, the complexation properties of the derivative from Example 1 were tested vis à vis physiological cations: calcium, sodium and potassium, all of which are required in the development of living organisms.
(§6) The same procedure was used as given in Example 2, and the resulting products were characterised by proton NMR spectrometry.

[10] = Complexation of physiological cation K+, proton NMR; settings: same procedure as Example 2: 1 mmol/l derivative, 4 mmol/l cation
Method: as §1, §5, §6

[11] = Complexation of physiological cation Ca2+, proton NMR; settings: same procedure as Example 2: 1 mmol/l derivative, 4 mmol/l cation
Method: as §1, §5, §6

Substance: Hexakis-(3,6-anhydro-2-O-carboxymethyl)-cyclomaltohexaose [Example 1]
- interaction with Dy^3+ (change of proton NMR spectrum) [1]: very strong interaction
- interaction with Eu^3+ (change of proton NMR spectrum) [2]: very strong interaction
- interaction with Co^2+ (change of proton NMR spectrum) [3]: very strong interaction
- interaction with La^3+ (change of proton NMR spectrum) [4]: H6 and H6′ protons located on the anhydro bridge can still be observed
- interaction with Lu^3+ (change of proton NMR spectrum) [5]: several stoichiometrically different complexes co-exist in solution
- strength of Dy^3+ complex compared to EDTA [6]: complexes the cations more strongly than EDTA
- strength of Eu^3+ complex compared to EDTA [7]: complexes the cations more strongly than EDTA
- strength of Co^2+ complex compared to EDTA [8]: complexes the cations more strongly than EDTA
- effect of Na^+ on proton NMR peaks of the derivative (complexation) [9]: hardly affected
- effect of K^+ on proton NMR peaks of the derivative (complexation) [10]: hardly affected
- effect of Ca^2+ on proton NMR peaks of the derivative (complexation) [11]: hardly affected
